Data as given in US9776995B2, “Bicyclic sulfonamide compounds as sodium channel inhibitors” (AMGEN INC., priority 2013, dated 2017).

What follows are molecules tested against T1, Nav 1.7 (Homo sapiens (Human), UniProt Q15858) (assay: in-vitro Nav 1.7 PX data). Settings: not given.
Format: cell-based

T1 sequence (Q15858 whole entry): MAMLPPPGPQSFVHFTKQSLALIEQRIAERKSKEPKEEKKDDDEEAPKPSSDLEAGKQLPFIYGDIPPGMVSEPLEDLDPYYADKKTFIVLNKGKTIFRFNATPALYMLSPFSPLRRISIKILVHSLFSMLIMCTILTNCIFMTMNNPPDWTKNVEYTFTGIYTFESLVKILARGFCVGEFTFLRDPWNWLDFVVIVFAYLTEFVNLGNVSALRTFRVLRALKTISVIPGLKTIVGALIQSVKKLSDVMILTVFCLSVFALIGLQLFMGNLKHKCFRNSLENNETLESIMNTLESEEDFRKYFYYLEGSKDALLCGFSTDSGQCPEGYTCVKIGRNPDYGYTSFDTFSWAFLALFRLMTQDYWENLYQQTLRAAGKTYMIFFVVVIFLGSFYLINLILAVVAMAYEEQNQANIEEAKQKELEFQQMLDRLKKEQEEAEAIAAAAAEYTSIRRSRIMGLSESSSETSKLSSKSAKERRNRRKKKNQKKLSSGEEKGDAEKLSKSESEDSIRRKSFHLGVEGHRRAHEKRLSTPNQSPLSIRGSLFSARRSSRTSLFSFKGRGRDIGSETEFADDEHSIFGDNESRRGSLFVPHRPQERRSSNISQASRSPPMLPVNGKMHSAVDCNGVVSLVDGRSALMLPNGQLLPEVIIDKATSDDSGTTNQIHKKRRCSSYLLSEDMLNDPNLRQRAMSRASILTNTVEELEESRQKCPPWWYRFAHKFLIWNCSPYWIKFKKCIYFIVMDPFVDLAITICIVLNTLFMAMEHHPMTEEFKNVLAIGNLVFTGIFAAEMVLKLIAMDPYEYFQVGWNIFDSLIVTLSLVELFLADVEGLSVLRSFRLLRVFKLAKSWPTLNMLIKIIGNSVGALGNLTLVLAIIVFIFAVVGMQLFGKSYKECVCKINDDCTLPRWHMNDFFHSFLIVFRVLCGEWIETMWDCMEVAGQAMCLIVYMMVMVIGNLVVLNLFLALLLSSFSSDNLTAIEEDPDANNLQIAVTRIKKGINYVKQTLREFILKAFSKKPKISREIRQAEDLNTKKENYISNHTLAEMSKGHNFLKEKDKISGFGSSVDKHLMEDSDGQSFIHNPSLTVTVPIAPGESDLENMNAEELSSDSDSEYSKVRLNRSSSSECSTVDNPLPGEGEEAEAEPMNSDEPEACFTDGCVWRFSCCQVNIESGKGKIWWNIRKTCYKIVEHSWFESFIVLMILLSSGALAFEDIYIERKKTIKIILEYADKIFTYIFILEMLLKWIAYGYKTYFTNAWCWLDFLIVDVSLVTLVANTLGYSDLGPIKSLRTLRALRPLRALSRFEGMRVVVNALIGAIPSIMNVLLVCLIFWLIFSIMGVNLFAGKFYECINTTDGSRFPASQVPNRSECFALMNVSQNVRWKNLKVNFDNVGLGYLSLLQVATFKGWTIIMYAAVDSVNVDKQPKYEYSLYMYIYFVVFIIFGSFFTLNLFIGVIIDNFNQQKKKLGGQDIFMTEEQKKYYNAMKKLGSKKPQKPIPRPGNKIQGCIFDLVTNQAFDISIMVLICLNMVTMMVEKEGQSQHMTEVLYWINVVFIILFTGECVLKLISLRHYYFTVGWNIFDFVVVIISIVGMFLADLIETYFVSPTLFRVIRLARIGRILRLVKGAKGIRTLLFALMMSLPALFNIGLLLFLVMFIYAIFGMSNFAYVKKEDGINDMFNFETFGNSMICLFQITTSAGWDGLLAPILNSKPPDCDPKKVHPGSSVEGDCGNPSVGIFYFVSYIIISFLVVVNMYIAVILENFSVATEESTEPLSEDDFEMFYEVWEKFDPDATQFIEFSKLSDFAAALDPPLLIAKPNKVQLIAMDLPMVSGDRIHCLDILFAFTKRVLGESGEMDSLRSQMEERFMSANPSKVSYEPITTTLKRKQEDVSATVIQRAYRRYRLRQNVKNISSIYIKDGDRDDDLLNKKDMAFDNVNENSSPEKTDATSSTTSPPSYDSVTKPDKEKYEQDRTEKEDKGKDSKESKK

SMILES	IC50
COc1cc(C(F)(F)F)ccc1-c1ncnc2cc(S(=O)(=O)Nc3ccon3)ccc12 [Example 38, N-(ISOXAZOL-3-YL)-4-(2-METHOXY-4-(TRIFLUOROMETHYL)PHENYL)QUINAZOLINE-7-SULFONAMIDE]	2570 nM
COc1cc(N2CC(F)(F)C2)c(C#N)cc1-c1nccc2cc(S(=O)(=O)Nc3ccon3)ccc12 [Example 23, 1-(5-CYANO-4-(3,3-DIFLUOROAZETIDIN-1-YL)-2-METHOXYPHENYL)-N-(ISOXAZOL-3-YL)ISOQUINOLINE-6-SULFONAMIDE]	988 nM

Same assay, conditions: PatchXpress (PX), in vitro

SMILES	IC50
COc1ccc(-c2nccc3cc(S(=O)(=O)Nc4ccncn4)ccc23)c(NCC(C)(C)C)n1 [Example 70, 1-(2-((2,2-dimethylpropyl)amino)-6-methoxy-3-pyridinyl)-N-4-pyrimidinyl-6-isoquinolinesulfonamide]	2510 nM
COc1nc(NCC(C)(C)C)ccc1-c1nccc2cc(S(=O)(=O)Nc3ccncn3)ccc12 [Example 47, 1-(2-METHOXY-6-(NEOPENTYLAMINO)PYRIDIN-3-YL)-N-(PYRIMIDIN-4-YL)ISOQUINOLINE-6-SULFONAMIDE]	899 nM
COc1nc(N(C)CC(C)C)ccc1-c1nccc2cc(S(=O)(=O)Nc3ccncn3)ccc12 [Example 68, 1-(2-methoxy-6-(methyl(2-methylpropyl)amino)-3-pyridinyl)-N-4-pyrimidinyl-6-isoquinolinesulfonamide]	2880 nM

The remaining lines, values ahead:

IC50	SMILES
66.3 nM	COc1cc(-c2cc(F)cnc2OC)c(F)cc1-c1nccc2cc(S(=O)(=O)Nc3ccsn3)ccc12 [Example 99, 1-(5-fluoro-4-(5-fluoro-2-methoxy-3-pyridinyl)-2-methoxyphenyl)-N-3-isothiazolyl-6-isoquinolinesulfonamide]
50.6 nM	COc1cc(-c2ccc(F)c(C)c2)c(Cl)cc1-c1nccc2cc(S(=O)(=O)Nc3ccon3)ccc12 [Example 94, 1-(2-chloro-4′-fluoro-5-methoxy-3′-methyl-4-biphenylyl)-N-3-isoxazolyl-6-isoquinolinesulfonamide]

Same assay, conditions: in-vitro Nav 1.7 PX data

IC50	SMILES
8540 nM	COc1ccc(F)cc1-c1cc(C)c(-c2ncnc3cc(S(=O)(=O)Nc4ccon4)ccc23)cc1OC [Example 168, 4-(5′-fluoro-2,2′-dimethoxy-5-methyl-4-biphenylyl)-N-3-isoxazolyl-7-quinazolinesulfonamide]
3220 nM	COc1cc(-c2cc(F)cc(F)c2)ccc1-c1nccc2cc(S(=O)(=O)Nc3ncc(C(F)(F)F)o3)ccc12 [Example 143, 1-(3′,5′-difluoro-3-methoxy-4-biphenylyl)-N-(5-(trifluoromethyl)-1,3-oxazol-2-yl)-6-isoquinolinesulfonamide]
15300 nM	COc1cc(C#N)c(-c2cc(F)cc(F)c2)cc1-c1nccc2cc(S(=O)(=O)Nc3ccon3)ccc12 [Example 139, 1-(6-cyano-3′,5′-difluoro-4-methoxy-3-biphenylyl)-N-3-isoxazolyl-6-isoquinolinesulfonamide]
1010 nM	COc1cc(-c2cc(F)cc(F)c2)ccc1-c1nccc2cc(S(=O)(=O)Nc3ccccn3)ccc12 [Example 141, 1-(3′,5′-difluoro-3-methoxy-4-biphenylyl)-N-2-pyridinyl-6-isoquinolinesulfonamide]
28.6 nM	COc1cc(-c2cccc(C(F)(F)F)c2)c(C#N)cc1-c1nccc2cc(S(=O)(=O)Nc3ccon3)ccc12 [Example 148, 1-(2-cyano-5-methoxy-3′-(trifluoromethyl)-4-biphenylyl)-N-3-isoxazolyl-6-isoquinolinesulfonamide]
1600 nM	O=S(=O)(Nc1nncs1)c1ccc2c(-c3ccc(-c4cccc(F)c4)cc3CO)nccc2c1 [Example 11, 1-(3′-FLUORO-3-(HYDROXYMETHYL)-[1,1′-BIPHENYL]-4-YL)-N-(1,3,4-THIADIAZOL-2-YL)ISOQUINOLINE-6-SULFONAMIDE]

Same assay, conditions: in-vitro PX

IC50	SMILES
21.8 nM	COc1cc(-c2ccc(Cl)c(C)c2)c(Cl)cc1-c1ncnc2cc(S(=O)(=O)Nc3ccon3)ccc12 [Example 204, 4-(2,4′-dichloro-5-methoxy-3′-methyl-4-biphenylyl)-N-3-isoxazolyl-7-quinazolinesulfonamide]
19.8 nM	COc1cc(-c2cc(F)cnc2OC)c(Cl)cc1-c1ncnc2cc(S(=O)(=O)Nc3ccon3)ccc12 [Example 214, 4-(5-chloro-4-(5-fluoro-2-methoxy-3-pyridinyl)-2-methoxyphenyl)-N-3-isoxazolyl-7-quinazolinesulfonamide]
126 nM	COc1cc(-c2cccc(F)c2)c(Cl)cc1-c1n[nH]c(=O)c2cc(S(=O)(=O)Nc3ccon3)ccc12 [Example 232, 1-(2-chloro-3′-fluoro-5-methoxy-4-biphenylyl)-N-3-isoxazolyl-4-oxo-3,4-dihydro-6-phthalazinesulfonamide]
14.5 nM	COc1cc(-c2cc(F)cc(F)c2)c(Cl)cc1-c1ncnc2cc(S(=O)(=O)Nc3ccon3)ccc12 [Example 206, 4-(2-chloro-3′,5′-difluoro-5-methoxy-4-biphenylyl)-N-3-isoxazolyl-7-quinazolinesulfonamide]

Same assay, conditions: in-vitro PX (PatchXpress) data

SMILES	IC50
COc1cc(-c2cc(F)cc(F)c2)ccc1-c1ccnc2cc(S(=O)(=O)Nc3nncs3)ccc12 [Example 13, 4-(3′,5′-DIFLUORO-3-METHOXY-[1,1′-BIPHENYL]-4-YL)-N-(1,3,4-THIADIAZOL-2-YL)QUINOLINE-7-SULFONAMIDE]	453 nM
O=S(=O)(Nc1ccncn1)c1ccc2c(-c3ccc(C(F)(F)F)cc3C3CC3)ncnc2c1 [Example 36, 4-(2-CYCLOPROPYL-4-(TRIFLUOROMETHYL)-PHENYL)-N-(PYRIMIDIN-4-YL)QUINAZOLINE-7-SULFONAMIDE]	744 nM
COc1cc(-c2cccc(F)c2)ccc1-c1n[nH]c(=O)c2cc(S(=O)(=O)Nc3nncs3)ccc12 [Example 18, 1-(3′-FLUORO-3-METHOXY-[1,1′-BIPHENYL]-4-YL)-4-OXO-N-(1,3,4-THIADIAZOL-2-YL)-3,4-DIHYDROPHTHALAZINE-6-SULFONAMIDE]	1420 nM
COc1cc(Oc2cc(C)cc(F)c2)ccc1-c1nccc2cc(S(=O)(=O)Nc3nncs3)ccc12 [Example 32, 1-(4-(3-FLUORO-5-METHYLPHENOXY)-2-METHOXYPHENYL)-N-(1,3,4-THIADIAZOL-2-YL)ISOQUINOLINE-6-SULFONAMIDE]	129 nM
COc1cc(-c2cccnc2OC(F)F)ccc1-c1nccc2cc(S(=O)(=O)Nc3nncs3)ccc12 [Example 193, 1-(4-(2-(difluoromethoxy)-3-pyridinyl)-2-methoxyphenyl)-N-1,3,4-thiadiazol-2-yl-6-isoquinolinesulfonamide]	871 nM

Now from value to molecule:

IC50	SMILES
7.8 nM	COc1cc(-c2ccc(F)c(Cl)c2)c(Cl)cc1-c1ncnc2cc(S(=O)(=O)Nc3ccon3)ccc12 [Example 19, 4-(2,3′-DICHLORO-4′-FLUORO-5-METHOXY-[1,1′-BIPHENYL]-4-YL)-N-(ISOXAZOL-3-YL)QUINAZOLINE-7-SULFONAMIDE]
110 nM	COc1cc(-c2cccc(F)c2)c(Cl)cc1-c1ncnc2cc(S(=O)(=O)Nc3cccnn3)ccc12 [Example 15, 4-(2-CHLORO-3′-FLUORO-5-METHOXY-[1,1′-BIPHENYL]-4-YL)-N-(PYRIDAZIN-3-YL)QUINAZOLINE-7-SULFONAMIDE]

Same assay, conditions: in-vitro PX data

IC50	SMILES
73.6 nM	COc1cc(-c2ccc(Cl)c(C)c2)c(Cl)cc1-c1nccc2cc(S(=O)(=O)Nc3ccon3)ccc12 [Example 119, 1-(2,4′-dichloro-5-methoxy-3′-methyl-4-biphenylyl)-N-3-isoxazolyl-6-isoquinolinesulfonamide]
108 nM	COc1cc(Br)c(Cl)cc1-c1nccc2cc(S(=O)(=O)Nc3ccon3)ccc12 [Example 117, 1-(4-bromo-5-chloro-2-methoxyphenyl)-N-3-isoxazolyl-6-isoquinolinesulfonamide]

These molecules were tested against T1, Nav 1.7 (assay: Nav 1.7 in vitro PX assay (PatchXpress whole cell voltage clamp)). Settings: HEK 293 cells stably transfected with human Nav1.7; PatchXpress; partially inactivated state.
Format: cell-based

SMILES	IC50
COc1cc(-c2ccc(C(F)(F)F)cc2)c(F)cc1-c1nccc2cc(S(=O)(=O)Nc3ccon3)ccc12 [Example 539, 1-(2-fluoro-5-methoxy-4′-(trifluoromethyl)-4-biphenylyl)-N-3-isoxazolyl-6-isoquinolinesulfonamide]	237 nM
COc1cc(-c2cc(F)cc(C(F)F)c2)c(F)cc1-c1nccc2cc(S(=O)(=O)Nc3ccon3)ccc12 [Example 362, 1-(3′-(difluoromethyl)-2,5′-difluoro-5-methoxy-[1,1′-biphenyl]-4-yl)-N-(isoxazol-3-yl)isoquinoline-6-sulfonamide]	52 nM
COc1cc(-c2cccc(F)c2)c(Cl)cc1-c1c(=O)[nH]cc2cc(S(=O)(=O)Nc3ccon3)ccc12 [Example 398, 4-(2-CHLORO-3′-FLUORO-5-METHOXY-[1,1′-BIPHENYL]-4-YL)-N-(ISOXAZOL-3-YL)-3-OXO-2,3-DIHYDROISOQUINOLINE-7-SULFONAMIDE]	27 nM

Now from value to molecule:

IC50	SMILES
610 nM	CCOc1ccc(-c2cc(OC)c(-c3ncnc4cc(S(=O)(=O)Nc5ccon5)ccc34)cc2F)cc1C [Example 535, 4-(4′-ethoxy-2-fluoro-5-methoxy-3′-methyl-4-biphenylyl)-N-3-isoxazolyl-7-quinazolinesulfonamide]
35 nM	COc1cc(F)cc(-c2cc(OC)c(-c3ncnc4cc(S(=O)(=O)Nc5ccon5)ccc34)cc2C)c1 [Example 560, 4-(3′-fluoro-5,5′-dimethoxy-2-methyl-4-biphenylyl)-N-3-isoxazolyl-7-quinazolinesulfonamide]

Same assay, conditions: PatchXpress (PX)

IC50	SMILES
50.4 nM	COc1cc(-c2cc(F)cc(F)c2)c(C)cc1-c1ncnc2cc(S(=O)(=O)Nc3ccon3)ccc12 [Example 61, 4-(3′,5′-DIFLUORO-5-METHOXY-2-METHYL-[1,1′-BIPHENYL]-4-YL)-N-(ISOXAZOL-3-YL)QUINAZOLINE-7-SULFONAMIDE]
23.9 nM	COc1cc(-c2cc(C)cc(Cl)c2)c(C)cc1-c1ncnc2cc(S(=O)(=O)Nc3ccon3)ccc12 [Example 268, 4-(3′-chloro-5-methoxy-2,5′-dimethyl-4-biphenylyl)-N-3-isoxazolyl-7-quinazolinesulfonamide]

Same assay, conditions: in-vitro Nav 1.7 PX (PatchXpress)

IC50	SMILES
34 nM	COc1cc(-c2ccc(F)c(C3CC3)c2)c(C)cc1-c1ncnc2cc(S(=O)(=O)Nc3ccon3)ccc12 [Example 63, 4-(3′-CYCLOPROPYL-4′-FLUORO-5-METHOXY-2-METHYL-[1,1′-BIPHENYL]-4-YL)-N-(ISOXAZOL-3-YL)QUINAZOLINE-7-SULFONAMIDE]
